Reference: ChEMBL document CHEMBL5608188, “Discovery of N'-benzyl-3-chloro-N-((1S,3R,4R)-3-((dimethylamino)methyl)-4-hydroxy-4-(3-methoxyphenyl)cyclohexyl)benzenesulfonamide as a novel selective KOR ligand” (Eur J Med Chem, 2024)
Calls of active or inactive are those of the source. The rule behind the calls is not given here.

Tests used:
[1] = biological target: Delta-type opioid receptor (Rattus norvegicus) (UniProt P33533); assay: Displacement of [3H] DPDPE from rat delta-opioid receptor extracted from CHO cell membrane at 0.1 uM by liquid scintillation counting analysis relative to control; assay type: cell membranes
Sequence of Delta-type opioid receptor (Rattus norvegicus) (P33533 whole entry): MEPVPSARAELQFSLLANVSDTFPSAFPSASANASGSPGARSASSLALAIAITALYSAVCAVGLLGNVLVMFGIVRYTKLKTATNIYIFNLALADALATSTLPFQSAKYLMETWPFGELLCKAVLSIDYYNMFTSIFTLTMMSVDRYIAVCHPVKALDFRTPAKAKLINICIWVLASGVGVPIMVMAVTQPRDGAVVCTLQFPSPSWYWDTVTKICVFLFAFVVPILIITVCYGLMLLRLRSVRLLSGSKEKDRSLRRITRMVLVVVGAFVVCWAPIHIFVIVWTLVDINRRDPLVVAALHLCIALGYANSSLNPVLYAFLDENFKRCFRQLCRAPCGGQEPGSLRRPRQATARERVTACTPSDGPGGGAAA

[2] = biological target: T1, Kappa-type opioid receptor (Homo sapiens, UniProt P41145); assay: Displacement of [3H] U69593 from human kappa-opioid receptor extracted from CHO cell membrane at 0.1 uM by liquid scintillation counting analysis relative to control; assay type: cell membranes
T1 sequence (P41145 whole entry): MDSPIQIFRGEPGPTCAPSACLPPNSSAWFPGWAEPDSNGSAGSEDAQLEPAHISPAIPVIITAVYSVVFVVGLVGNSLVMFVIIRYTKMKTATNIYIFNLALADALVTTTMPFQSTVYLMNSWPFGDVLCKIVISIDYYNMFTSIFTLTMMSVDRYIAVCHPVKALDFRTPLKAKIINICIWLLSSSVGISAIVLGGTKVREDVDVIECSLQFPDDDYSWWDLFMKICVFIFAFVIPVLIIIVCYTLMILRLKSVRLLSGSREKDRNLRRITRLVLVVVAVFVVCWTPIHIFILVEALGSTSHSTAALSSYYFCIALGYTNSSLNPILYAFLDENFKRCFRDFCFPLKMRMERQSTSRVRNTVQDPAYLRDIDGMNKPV

[3] = biological target: Mu-type opioid receptor (Rattus norvegicus) (UniProt P33535); assay: Displacement of [3H] DAMGO from rat mu-opioid receptor extracted from CHO cell membrane at 0.1 uM by liquid scintillation counting analysis relative to control; assay type: cell membranes
Sequence of Mu-type opioid receptor (Rattus norvegicus) (P33535 whole entry): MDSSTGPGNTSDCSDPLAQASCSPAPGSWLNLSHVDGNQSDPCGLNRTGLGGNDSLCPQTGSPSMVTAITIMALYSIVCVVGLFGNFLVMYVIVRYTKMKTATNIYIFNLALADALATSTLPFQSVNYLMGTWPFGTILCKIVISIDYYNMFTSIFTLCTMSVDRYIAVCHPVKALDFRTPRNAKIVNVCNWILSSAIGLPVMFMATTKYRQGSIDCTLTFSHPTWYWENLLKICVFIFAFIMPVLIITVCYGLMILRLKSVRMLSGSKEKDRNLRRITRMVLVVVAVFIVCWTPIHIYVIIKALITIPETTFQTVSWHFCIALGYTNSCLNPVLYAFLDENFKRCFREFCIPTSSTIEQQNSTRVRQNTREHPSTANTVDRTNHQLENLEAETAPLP

[4] = biological target: Mu-type opioid receptor (Rattus norvegicus) (UniProt P33535); assay: (§1) Displacement of [3H] DAMGO from rat mu-opioid receptor extracted from CHO cell membrane assessed as inhibition constant by liquid scintillation counting analysis; assay type: cell membranes
[5] = biological target: T1, Kappa-type opioid receptor; assay: Displacement of [3H] U69593 from human kappa-opioid receptor extracted from CHO cell membrane assessed as inhibition constant by liquid scintillation counting analysis; assay type: cell membranes
[6] = biological target: T1, Kappa-type opioid receptor; assay: Binding affinity to human kappa-opioid receptor extracted from CHO cell membrane assessed as inhibition constant incubated for 60 mins in presence of [3H]U69593 by radioligand binding assay; assay type: cell membranes
[7] = Metabolic stability in mouse liver microsomes assessed as half life at 1 uM measured upto 60 mins in presence of NADPH by LC-MS/MS analysis; assay type: ADME, Microsome
[8] = Metabolic stability in mouse liver assessed as intrinsic clearance at 1 uM measured upto 60 mins in presence of NADPH by LC-MS/MS analysis; assay type: ADME, tissue-based; conditions: read-out: CLH
[9] = Metabolic stability in mouse liver microsomes assessed as intrinsic clearance at 1 uM measured upto 60 mins in presence of NADPH by LC-MS/MS analysis; assay type: ADME, Microsome; conditions: read-out: CLH
[10] = Tmax in ICR mouse at 5 mg/kg, po measured after 24 hrs; assay type: ADME, organism-based; conditions: in vivo
[11] = Metabolic stability in mouse liver microsomes assessed as parent compound remaining at 1 uM measured after 30 min in presence of NADPH by LC-MS/MS analysis; assay type: ADME, Microsome; conditions: read-out: Stability
[12] = Cmax in ICR mouse at 5 mg/kg, po measured after 24 hrs; assay type: ADME, organism-based; conditions: in vivo
[13] = biological target: Delta-type opioid receptor (Rattus norvegicus) (UniProt P33533); assay: (§2) Displacement of [3H] DPDPE from rat delta-opioid receptor extracted from CHO cell membrane assessed as inhibition constant by liquid scintillation counting analysis; assay type: cell membranes
[14] = Half-life in ICR mouse at 2 mg/kg, iv measured after 24 hrs; assay type: ADME, organism-based; conditions: in vivo
[15] = AUC (0 to infinity) in ICR mouse at 2 mg/kg, iv measured after 24 hrs; assay type: ADME, organism-based; conditions: in vivo
[16] = Cmax in ICR mouse at 2 mg/kg, iv measured after 24 hrs; assay type: ADME, organism-based; conditions: in vivo
[17] = Metabolic stability in mouse liver microsomes assessed as parent compound remaining at 1 uM measured after 60 min in presence of NADPH by LC-MS/MS analysis; assay type: ADME, Microsome; conditions: read-out: Stability
[18] = Drug uptake in mouse plasma; assay type: ADME, cell-free
[19] = Tmax in ICR mouse at 2 mg/kg, iv measured after 24 hrs; assay type: ADME, organism-based; conditions: in vivo
[20] = Toxicity in male Kunming mouse assessed as effect on sedation at 1.3 to 10 mg/kg, IP administered for 30 mins and measured after 1 hrs by open field test; assay type: organism-based; conditions: in vivo, 1.5 h, dose 1.3-10 mg/kg, time 90 min
[21] = Oral bioavailability in ICR mouse at 5 mg/kg measured after 24 hrs; assay type: ADME, organism-based; conditions: in vivo
[22] = tested on: Mus musculus; assay: Antinociceptive activity in acetic acid induced female Kunming mouse model assessed as reduction in number of torsions preadministered for 30 mins followed by acetic acid administration and measured after 15 mins by abdominal contraction test; assay type: functional; conditions: 0.75 h, time 45 min
[23] = AUC (0 to t) in ICR mouse at 2 mg/kg, iv measured after 24 hrs; assay type: ADME, organism-based; conditions: in vivo
[24] = Clearance in ICR mouse at 2 mg/kg, iv measured after 24 hrs; assay type: ADME, organism-based; conditions: in vivo
[25] = Metabolic stability in mouse liver microsomes assessed as parent compound remaining at 1 uM measured after 15 min in presence of NADPH by LC-MS/MS analysis; assay type: ADME, Microsome; conditions: read-out: Stability
[26] = AUC (0 to infinity) in ICR mouse at 5 mg/kg, po measured after 24 hrs; assay type: ADME, organism-based; conditions: in vivo
[27] = tested on: Mus musculus; assay: Antinociceptive activity in acetic acid induced female Kunming mouse model assessed as reduction in number of torsions preadministered with nor-BNI for 24 hrs followed by compound administration for 30 mins and measured after 15 mins of acetic acid administration by abdominal contraction test; assay type: functional, organism-based; conditions: time 45.0 min
[28] = Metabolic stability in mouse liver microsomes assessed as parent compound remaining at 1 uM measured after 5 min in presence of NADPH by LC-MS/MS analysis; assay type: ADME, Microsome; conditions: read-out: Stability
[29] = AUC (0 to t) in ICR mouse at 5 mg/kg, po measured after 24 hrs; assay type: ADME, organism-based; conditions: in vivo
[30] = Half-life in ICR mouse at 5 mg/kg, po measured after 24 hrs; assay type: ADME, organism-based; conditions: in vivo
[31] = biological target: Delta-type opioid receptor (Rattus norvegicus, UniProt P33533); assay: as §2; assay type: cell membranes
Sequence of Delta-type opioid receptor (P33533 whole entry): as the sequence (P33533 whole entry) above

[32] = biological target: Mu-type opioid receptor (Rattus norvegicus, UniProt P33535); assay: as §1; assay type: cell membranes
Sequence of Mu-type opioid receptor (P33535 whole entry): as the sequence (P33535 whole entry) above

Compound: COc1cccc(C2(OC(=O)c3ccccc3)CCC(N(C)S(=O)(=O)Cc3ccccc3)CC2CN(C)C)c1 (centres undefined)
- inhibition [1]: 0%
- inhibition [2]: 28.8%
- inhibition [3]: 3.3%

Compound: COc1cccc(C2(O)CCC(N(Cc3ccccc3)S(=O)(=O)c3cccs3)CC2CN(C)C)c1 (centres undefined)
- inhibition [1]: 0%
- inhibition [2]: 14.9%
- inhibition [3]: 9.5%

Compound: COc1cccc([C@]2(O)CC[C@@H](N(Cc3ccccc3)S(=O)(=O)c3cccc(Cl)c3)C[C@H]2CN(C)C)c1
- Activity [4]: inactive
- Activity [5]: inactive

Compound: COc1cccc(C2(O)CCCCC2CN(C)C)c1 (centres undefined)
- inhibition [1]: 0%
- inhibition [2]: 0%
- inhibition [3]: 6%

Compound: COc1cccc(C2(O)CCC(N(C)S(=O)(=O)c3cccs3)CC2CN(C)C)c1 (centres undefined)
- inhibition [1]: 30.1%
- inhibition [2]: 22%
- inhibition [3]: 0%

Compound: COc1cccc(C2(OC(=O)c3ccccc3)CCC(NS(=O)(=O)c3cccc(Cl)c3)CC2CN(C)C)c1 (centres undefined)
- inhibition [1]: 0%
- inhibition [2]: 30.5%
- inhibition [3]: 14.4%

Compound: COc1cccc(C2(O)CCC(N(C)S(=O)(=O)c3ccccc3)CC2CN(C)C)c1 (centres undefined)
- inhibition [1]: 12.9%
- inhibition [2]: 15.3%
- inhibition [3]: 38.6%

Compound: CN(C)C[C@@H]1CN(CCc2cccc(C(F)(F)F)c2)CC[C@@]1(O)c1cccc(O)c1
- Ki [6]: 25.8 nM

Compound: COc1cccc(C2(O)CCC(NS(=O)(=O)c3cccc(Cl)c3)CC2CN(C)C)c1 (centres undefined)
- inhibition [1]: 0%
- inhibition [2]: 15%
- inhibition [3]: 22.8%

Compound: COc1cccc(C2(O)CCC(NS(=O)(=O)c3cccs3)CC2CN(C)C)c1 (centres undefined)
- inhibition [1]: 0%
- inhibition [2]: 15.2%
- inhibition [3]: 1.2%

Compound: COc1cccc(C2(OC(=O)c3ccccc3)CCC(NS(=O)(=O)c3ccccc3)CC2CN(C)C)c1 (centres undefined)
- inhibition [1]: 0%
- inhibition [2]: 12.9%
- inhibition [3]: 18.1%

Compound: O=C(O)Cc1ccccc1Nc1c(Cl)cccc1Cl [DICLOFENAC]
- half-life at 1 µM [7]: 47.1 min
- CLint scaled at 1 µM [8]: 116 mL/min/kg
- microsomal CLint at 1 µM [9]: 29.4 µL/min/mg

Compound: COc1cccc(C2(O)CCC(NS(=O)(=O)Cc3ccccc3)CC2CN(C)C)c1 (centres undefined)
- inhibition [1]: 1%
- inhibition [2]: 11.2%
- inhibition [3]: 41.1%

Compound: COc1cccc(C2(OC(=O)c3ccccc3)CCC(N(C)S(=O)(=O)Cc3cccc(Cl)c3)CC2CN(C)C)c1 (centres undefined)
- inhibition [1]: 0%
- inhibition [2]: 16.6%
- inhibition [3]: 0%

Compound: COc1cccc(C2(O)CCC(NS(=O)(=O)Cc3cccc(Cl)c3)CC2CN(C)C)c1 (centres undefined)
- inhibition [1]: 0%
- inhibition [2]: 6.9%
- inhibition [3]: 35.8%

Compound: COc1cccc(C2(O)CCC(N(Cc3ccccc3)S(=O)(=O)c3cccc(Cl)c3)CC2CN(C)C)c1 (centres undefined)
- inhibition [1]: 0%
- inhibition [3]: 6.7%

Compound: COc1cccc([C@@]2(O)CC[C@H](N(Cc3ccccc3)S(=O)(=O)c3cccc(Cl)c3)C[C@@H]2CN(C)C)c1.Cl
- Tmax [10]: 4.98 min
- remaining at 0.5 h, 1 µM [11]: 5.89%
- Cmax [12]: 3.87 ng/mL
- Activity [13]: inactive
- half-life [14]: 71.4 min
- AUC(0-inf) [15]: 136 ng·h/mL
- Cmax [16]: 221 ng/mL
- remaining at 1 h, 1 µM [17]: 4.59%
- half-life at 1 µM [7]: 3.95 min
- Drug uptake [18]: Active
- Tmax [19]: 4.98 min
- Activity [20]: Non-Toxic
- CLint scaled at 1 µM [8]: 1390 mL/min/kg
- bioavailability [21]: 0.53%
- ED50 [22]: 1.3 mg/kg
- AUC(0-t) at 24 h [23]: 131 ng·h/mL
- clearance [24]: 246 mL/min/kg
- remaining at 0.25 h, 1 µM [25]: 6.7%
- AUC(0-inf) [26]: 1.64 ng·h/mL
- Activity [27]: inactive
- remaining at 5 min, 1 µM [28]: 29%
- microsomal CLint at 1 µM [9]: 351 µL/min/mg
- AUC(0-t) at 24 h [29]: 1.34 ng·h/mL
- inhibition [3]: 25.8%
- Ki [5]: 1.9 nM
- half-life [30]: 16.2 min

Compound: COc1cccc(C2(O)CCC(N(C)S(=O)(=O)c3cccc(Cl)c3)CC2CN(C)C)c1 (centres undefined)
- inhibition [1]: 14.8%
- inhibition [2]: 22.7%
- inhibition [3]: 16.5%

Compound: COc1cccc(C2(O)CCC(NS(=O)(=O)c3ccccc3)CC2CN(C)C)c1 (centres undefined)
- inhibition [1]: 7.51%
- inhibition [2]: 7.2%
- inhibition [3]: 11.8%

Compound: COc1cccc(C2(O)CCC(N(Cc3ccccc3)S(=O)(=O)c3ccccc3)CC2CN(C)C)c1 (centres undefined)
- inhibition [1]: 0%
- inhibition [2]: 39.7%
- inhibition [3]: 14.8%

Compound: CN(C)CC1CC(N(Cc2ccccc2)S(=O)(=O)c2cccc(Cl)c2)CCC1(O)c1cccc(O)c1.Cl (centres undefined)
- Ki [31]: 201 nM
- Ki [32]: 18.8 nM
- Drug uptake [18]: Active
- inhibition [1]: 20.7%
- Ki [5]: 3.1 nM
